Test results published in US20230101046A1, “ANAPLASTIC LYMPHOMA KINASE CHIMERIC ANTIGEN RECEPTORS AND METHODS OF USE” (The Children's Medical Center Corporation, priority 2020, published 2023).

How the values were obtained:
Kelly or SH-SY5Y cells = assay: Viability / proliferation of neuroblastoma cell lines treated with lorlatinib; assay type: cell-based, human; conditions: 100 nM
Method: First generation ALK tyrosine kinase inhibitors (TKIs), such as crizotinib, have limited therapeutic efficacy in neuroblastoma, while the third generation ALK TKI, lorlatinib, is effective against mutated neuroblastoma (Infarinato N R, et al., The ALK/ROS1 Inhibitor PF-06463922 Overcomes Primary Resistance to Crizotinib in ALK-Driven Neuroblastoma. Cancer Discov 2016 January; 6(1):96-107). The effects of lorlatinib on ALK viability and expression in neuroblastoma cells was evaluated. Several neuroblastoma cell lines with various ALK genetic alterations, including NB-1 (ALK WT amplified), IMR-32 (ALK WT), NBL-S(ALK WT), SH-SY5Y (mutated ALK^F1174L), Kelly (mutated ALK^F1174L), were treated with increasing doses of lorlatinib (FIG. 10A). Viability was measured at 48 hours.
In white 96-well plates, 3×10^4 cells/mL were grown in triplicates. The treatment with lorlatinib was done after 24 hour. Cell growth was analyzed 5 days after treatment using Cell Titer-GloMax assay (Promega, Fitchburg, Wis., USA), according to the manufacturer's instructions. In 24-well plates, 5×10^4 cells/mL were grown in triplicates. […] Apoptosis was measured 48 hours after treatment by flow cytometry after staining with the FITC Annexin V and propidium iodide (PI) Staining Solution Apoptosis Detection Kit I (BD Pharmingen) according to the manufacturer's instructions.

[1] = system: Eμ-myc/ALK systemic tumors; assay: Adoptive transfer in CD19+/ALK+ systemic leukemia model; assay type: in vivo, mice
Method: The CD19+/ALK+systemic leukemia model was used to validate and rank cytolytic activity of ALK CARs in vivo. Adoptive transfer of ALK CAR-T cells was conducted in mice with Eμ-myc/ALK systemic tumors. Mice were treated with cytophspamide (CTX, 100 mg/kg) alone (n=8), cytophosphamide plus CAR-CD19 (15×10^6 based on GFP+) (n=8), or cytophosphamide plus CAR-ALK #5 (15×10^6 based on GFP+) (n=8). Untreated mice (n=6) were used as a negative control. FIG. 5A provides a survival curve of these treated mice.
Circulating CD19+/ALK+ tumor cells were found in peripheral blood (FIG. 5B, Left). An ALK+ tumor mass was isolated close to lymph node (FIG. 5B, Right). FACS analysis was also conducted on the 6 out of 8 mice that survived more than two months. No tumor cells were found in peripheral blood of these mice (FIG. 5C).

With `C[C@H]1Oc2cc(cnc2N)-c2c(nn(C)c2C#N)CN(C)C(=O)c2ccc(F)cc21` [Lorlatinib, lorlatinib] as the compound, how does the reduction of proliferation (Kelly or SH-SY5Y cells) read?
Its reduction of proliferation is “less than 50%”.

`O=P1(N(CCCl)CCCl)NCCCO1` (stereo not drawn) [cyclophosphamide] was tested. Which “tumor cells in peripheral blood by FACS” value ([1]; CD19+/ALK+ cells) did it give?
The value was “CD19+/ALK+ cells were found in one mouse”.

And the survival of mice ([1]; Eμ-myc/ALK systemic tumors, CTX 100 mg/kg, CAR-T 15×10^6 based on GFP+)?
The survival of mice was “died within one month”.
